# Experimental data published in patent US10301256B2, “Sulfonamide and sulfinamide prodrugs of fumarates and their use in treating various diseases” (Alkermes Pharma Ireland Limited, priority 2014, dated 2019).
# Where a name gives a salt, the structure may show the parent alone.
# How the values were obtained:
# [1] = Chemical stability of MMF prodrugs in pH 8 phosphate buffer; assay type: physicochemical; settings: 50 mM buffer phosphate pH 8, 37° C., HPLC-UV, first-order decay
# Protocol: Stock solutions of the compounds in acetonitrile or acetonitrile/MeOH were prepared at 0.05M. A 0.010 mL aliquot of the stock was spiked into 1 mL of 50 mM buffer phosphate pH 8 and incubated at 37° C. Typically, aliquots (0.010 mL) were sampled at different time points and immediately injected in the HPLC with UV detection (211 nm). The peak areas corresponding to the compounds were plotted against time and the data were fitted to a first-order mono-exponential decay where the rate constant and the half-life were determined from the slope (Table 2).
# [2] = Physical stability in crystalline form by thermogravimetric analysis (TGA); assay type: physicochemical; settings: 55° C.; for weight loss vs time (TGA): crystalline form
# Protocol: The physical stability of compounds of the present invention and dimethyl fumarate (DMF) were measured via thermogravimetric analysis (TGA).
Compound,"pH 8 (t½, min) [1] [min]",weight loss vs time (TGA) [2],weight loss (TGA) ([2]; in less than 2 hours) [%]
"COC(=O)/C=C/C(=O)OCCN(C)S(C)(=O)=O [Compound 1, Methyl (2-(N-methylmethylsulfonamido)ethyl) fumarate]",187,no change,–
"COC(=O)/C=C/C(=O)OCCNS(C)(=O)=O [Compound 2, Methyl (2-(methylsulfonamido)ethyl) fumarate]",143.5,no change,–
"COC(=O)/C=C/C(=O)OC [DMF, dimethyl fumarate, reference compound]",–,–,~100
"COC(=O)/C=C/C(=O)OCCN1CCCS1(=O)=O [Compound 6, 2-(1,1-Dioxidoisothiazolidin-2-yl)ethyl methyl fumarate]",202,–,–
